1 compound from patent US6365626B1, “BTK inhibitors and methods for their identification and use” (Parker Hughes Institute, priority 1998, dated 2002) can be followed below.

The target in the assay is T1, BTK (Homo sapiens, UniProt Q06187).
T1 construct: expressed in transfected cells
Description: BTK inhibition assay of second generation LFM analogs. The assay is classed as biochemical. The conditions noted are these: Table 4.

T1 sequence (Q06187 2-659): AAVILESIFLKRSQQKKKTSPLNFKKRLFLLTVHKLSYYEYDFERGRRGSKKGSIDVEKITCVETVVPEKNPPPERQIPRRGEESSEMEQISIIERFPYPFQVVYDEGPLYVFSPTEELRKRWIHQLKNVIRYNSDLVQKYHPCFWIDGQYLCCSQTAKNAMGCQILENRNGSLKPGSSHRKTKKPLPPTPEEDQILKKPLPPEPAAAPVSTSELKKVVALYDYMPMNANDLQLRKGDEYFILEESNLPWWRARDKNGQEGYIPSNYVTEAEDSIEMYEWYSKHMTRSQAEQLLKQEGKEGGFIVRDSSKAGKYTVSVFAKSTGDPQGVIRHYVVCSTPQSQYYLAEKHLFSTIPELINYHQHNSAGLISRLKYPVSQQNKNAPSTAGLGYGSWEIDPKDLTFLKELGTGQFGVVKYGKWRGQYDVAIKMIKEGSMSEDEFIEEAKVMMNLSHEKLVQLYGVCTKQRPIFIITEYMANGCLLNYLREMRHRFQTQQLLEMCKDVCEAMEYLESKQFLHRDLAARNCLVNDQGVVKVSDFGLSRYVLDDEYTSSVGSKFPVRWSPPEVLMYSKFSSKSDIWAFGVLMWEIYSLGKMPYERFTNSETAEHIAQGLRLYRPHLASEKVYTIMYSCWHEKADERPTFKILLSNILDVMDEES

`CC(O)=C(C#N)C(=O)Nc1ccc(Cl)cc1Cl` [LFM-A20, α-Cyano-β-hydroxy-β-methyl-N-(2,4-dichlorophenyl)propenamide] returned an IC50 of 37 µM.

A word on the IC50: it is the concentration at which inhibition is half-maximal.
